Results: patent publication US20240180898A1, “USE OF AMINOTHIAZOLE DERIVATIVE IN TREATMENT OF IMMUNE INFLAMMATION” (INNAMUNE PHARMACEUTICAL CO. LTD., priority 2021, published 2024)

System: macrophages derived from mouse bone marrow
Test: LPS-induced secretion of inflammatory factors from macrophages, ELISA of supernatant
Format: cell-based
Details: 30 umol/L 2 hours before LPS 500 ng/ml for 24 hours; FIG. 2
Experimental: macrophage grouping (in vitro):
Cultivate macrophages derived from mouse bone marrow in vitro.
The experiment was divided into 8 groups, namely: • Control group (untreated mouse bone marrow-derived macrophages), • LPS group (500 ng/ml LPS stimulated macrophages for 24 hours), • LPS+TJ-2 group (2 hours before LPS stimulation, administer 30 umol/L TJ-2 drug stimulation), • LPS+TJ-5 group (2 hours before LPS stimulation, administer 30 umol/L TJ-5 drug stimulation), • LPS+TJ-8 group (2 hours before LPS stimulation, administer 30 umol/L TJ-8 drug stimulation), • LPS+TJ-9 group (2 hours before LPS stimulation, administer 30 umol/L TJ-9 drug stimulation), • LPS+TJ-11 group (2 hours before LPS stimulation, administer 30 umol/L TJ-11 drug stimulation), • and LPS+TJ-12 group (2 hours before LPS stimulation, administer 30 umol/L TJ-12 drug stimulation).
After 24 hours of LPS stimulation, the cell culture supernatant was removed and ELISA was performed to detect the concentration of various inflammatory factors in the supernatant.

Structure (SMILES): Cc1ccc(N2CCN(CC(=O)Nc3nc(-c4ccccc4)cs3)CC2)cc1 [INNA1602, 2-(4-(4-methylphenyl)piperazine-1-yl) -N-(4-phenylthiazole-2-yl) acetamide]
- inhibitory effect on inflammatory factors compared among the compounds: have the same inhibitory effect on inflammatory factors
- secretion of various inflammatory factors in macrophages (IL-1β, Il-6, TNF-α, IL-18, IL-17): can inhibit the secretion of various inflammatory factors in macrophages

Structure (SMILES): O=C(CN1CCN(Cc2ccccc2)CC1)Nc1nc(-c2ccccc2)cs1 [INNA1608, 2-(4-benzylpiperazine-1-yl)-N-(4-phenylthiazole-2-yl) acetamide]
- inhibitory effect on inflammatory factors compared among the compounds: have the same inhibitory effect on inflammatory factors
- secretion of various inflammatory factors in macrophages (IL-1β, Il-6, TNF-α, IL-18, IL-17): can inhibit the secretion of various inflammatory factors in macrophages

Structure (SMILES): COc1cccc(-c2csc(NC(=O)CCN3CCN(Cc4ccccc4)CC3)n2)c1 [INNA1609, 3-(4-benzylpiperazine-1-yl)-N-(4-(3-methoxyphenyl)thiazole-2-yl) propionamide]
- inhibitory effect on inflammatory factors compared among the compounds: have the same inhibitory effect on inflammatory factors
- secretion of various inflammatory factors in macrophages (IL-1β, Il-6, TNF-α, IL-18, IL-17): can inhibit the secretion of various inflammatory factors in macrophages

Structure (SMILES): Cc1cccc(-c2csc(NC(=O)CCN3CCN(c4cccc(C)c4)CC3)n2)c1 [INNA1611]
- inhibitory effect on inflammatory factors compared among the compounds: have the same inhibitory effect on inflammatory factors
- secretion of various inflammatory factors in macrophages (IL-1β, Il-6, TNF-α, IL-18, IL-17): can inhibit the secretion of various inflammatory factors in macrophages

Structure (SMILES): Cc1cccc(-c2csc(NC(=O)CN3CCN(Cc4ccccc4)CC3)n2)c1 [INNA1612, 2-(4-benzyl-base)piperazine-1-N-(4-(3-methylphenyl)thiazole-2-base) acetamide]
- inhibitory effect on inflammatory factors compared among the compounds: have the same inhibitory effect on inflammatory factors
- secretion of various inflammatory factors in macrophages (IL-1β, Il-6, TNF-α, IL-18, IL-17): can inhibit the secretion of various inflammatory factors in macrophages
